Measurements from US10155768B2, “Fused pyrimidine compound or salt thereof” (TAIHO PHARMACEUTICAL CO., LTD., priority 2016, dated 2018).

Test system: not given
Test: not given
Conditions: mouse, microsomes, 0.5 h

Row | SMILES | Remaining (%)
1 | C#Cc1ccc(NC(=O)c2cn(C3(C)CC3)c3ncnc(N)c23)cc1 [Example 108, 4-amino-N-(4-ethynylphenyl)-7-(1-methylcyclopropyl)-7H-pyrrolo[2,3-d]pyrimidine-5-carboxamide] | 60
2 | C/C=C/c1ccc(NC(=O)c2cn(C3(C)CC3)c3ncnc(N)c23)cc1 [Example 107, (E)-4-amino-7-(1-methylcyclopropyl)-N-(4-(prop-1-en-1-yl)phenyl)-7H-pyrrolo[2,3-d]pyrimidine-5-carboxamide] | 63

Same assay, conditions: mouse, microsomes, 0.5 h, 1 μM

Row | SMILES | Remaining (%)
3 | C/C=C/c1ccc(NC(=O)c2c(OCC)n(C3(C)CC3)c3ncnc(N)c23)cc1 [Example 117, (E)-4-amino-6-ethoxy-7-(1-methylcyclopropyl)-N-(4-(prop-1-en-1-yl)phenyl)-7H-pyrrolo[2,3-d]pyrimidine-5-carboxamide] | 53

Test system: not listed separately
Test: Evaluation of stability in liver microsome
Conditions: mouse liver microsome 0.25 mg/mL, 1 μM test compound, 37° C. for 30 minutes
Procedure: Solutions of the test compounds in DMSO/acetonitrile (the final concentration of each test compound was 1 μM, the final concentration of DMSO was 0.01%, and the final concentration of acetonitrile was 1%) were individually added to a liver microsome mixture solution (mouse liver microsome with a final concentration of 0.25 mg/mL, a potassium phosphate buffer with a final concentration of 100 mM, and magnesium chloride with a final concentration of 3 mM), and each mixture was pre-incubated at 37° C. for 5 minutes. […] After incubation at 37° C. for 30 minutes, a double amount of ethanol was added thereto to terminate the reaction, thereby obtaining post-reaction samples. A double amount of ethanol was added to each of the remaining mixture solutions, and a NADPH-generating system was further added thereto, thereby obtaining pre-reaction samples. The pre-reaction samples and post-reaction samples were centrifuged at 2000×g, and their supernatant was filtered through a glass filter. Each filtrate was then introduced into LC-MS/MS, and MS/MS peaks of the test compounds were detected. From the ratio of the post-reaction MS/MS peak to the pre-reaction MS/MS peak of the test compounds, the percentage of the remaining test compounds (remaining %) was calculated.

Row | SMILES | Remaining (%)
4 | COCc1ccc(NC(=O)c2c(C#CCCN3CCOCC3)n(C3(C)CC3)c3ncnc(N)c23)cc1 [Example 187, 4-amino-N-(4-(methoxymethyl)phenyl)-7-(1-methylcyclopropyl)-6-(4-morpholinobut-1-yn-1-yl)-7H-pyrrolo[2,3-d]pyrimidine-5-carboxamide] | 68
5 | COCc1ccc(NC(=O)c2c(OC[C@@H](C)OC)n(C3(C)CC3)c3ncnc(N)c23)cc1 [Example 96, (R)-4-amino-N-(4-(methoxymethyl)phenyl)-6-(2-methoxypropoxy)-7-(1-methylcyclopropyl)-7H-pyrrolo[2,3-d]pyrimidine-5-carboxamide] | 71
6 | COCc1ccc(NC(=O)c2c(C#CC3(O)CCOC3)n(C3(C)CC3)c3ncnc(N)c23)cc1 (stereo not shown) [Example 177, 4-amino-6-((3-hydroxytetrahydrofuran-3-yl)ethynyl)-N-(4-(methoxymethyl)phenyl)-7-(1-methylcyclopropyl)-7H-pyrrolo[2,3-d]pyrimidine-5-carboxamide] | 72
7 | Nc1ncnc2c1c(C(=O)Nc1ccc(Oc3ccccc3)cc1)cn2C1CCCC1 [Compound 2 of Comparative Examples, 4-amino-7-cyclopentyl-N-(4-phenoxyphenyl)-7H-pyrrolo[2,3-d]pyrimidine-5-carboxamide, reference compound] | 0
8 | COCc1ccc(NC(=O)c2c(C#Cc3cnc[nH]3)n(C3(C)CC3)c3ncnc(N)c23)cc1 [Example 191, 6-((1H-imidazol-5-yl)ethynyl)-4-amino-N-(4-(methoxymethyl)phenyl)-7-(1-methylcyclopropyl)-7H-pyrrolo[2,3-d]pyrimidine-5-carboxamide] | 53
9 | COCc1ccc(NC(=O)c2c(C#CCN(C)C)n(C3(C)CC3)c3ncnc(N)c23)cc1 [Example 198, 4-amino-6-(3-(dimethylamino)prop-1-yn-1-yl)-N-(4-(methoxymethyl)phenyl)-7-(1-methylcyclopropyl)-7H-pyrrolo[2,3-d]pyrimidine-5-carboxamide] | 57
10 | COCc1ccc(NC(=O)c2c(C#Cc3ccc(OC)nc3)n(C3(C)CC3)c3ncnc(N)c23)cc1 [Example 192, 4-amino-N-(4-(methoxymethyl)phenyl)-6-((6-methoxypyridin-3-yl)ethynyl)-7-(1-methylcyclopropyl)-7H-pyrrolo[2,3-d]pyrimidine-5-carboxamide] | 79
11 | COCc1ccc(NC(=O)c2c(C#Cc3ccn[nH]3)n(C3(C)CC3)c3ncnc(N)c23)cc1 [Example 129, 6-((1H-pyrazol-5-yl)ethynyl)-4-amino-N-(4-(methoxymethyl)phenyl)-7-(1-methylcyclopropyl)-7H-pyrrolo[2,3-d]pyrimidine-5-carboxamide] | 54
12 | COCc1ccc(NC(=O)c2c(C#Cc3c[nH]c4ccccc34)n(C3(C)CC3)c3ncnc(N)c23)cc1 [Example 121, 6-((1H-indol-3-yl)ethynyl)-4-amino-N-(4-(methoxymethyl)phenyl)-7-(1-methylcyclopropyl)-7H-pyrrolo[2,3-d]pyrimidine-5-carboxamide] | 74
13 | COCc1ccc(NC(=O)c2c(C#Cc3cncc(F)c3)n(C3(C)CC3)c3ncnc(N)c23)cc1 [Example 175, 4-amino-6-((5-fluoropyridin-3-yl)ethynyl)-N-(4-(methoxymethyl)phenyl)-7-(1-methylcyclopropyl)-7H-pyrrolo[2,3-d]pyrimidine-5-carboxamide] | 66
14 | COCc1ccc(NC(=O)c2c(OCCN3CCCC3=O)n(C3(C)CC3)c3ncnc(N)c23)cc1 [Example 136, 4-amino-N-(4-(methoxymethyl)phenyl)-7-(1-methylcyclopropyl)-6-(2-(2-oxopyrrolidin-1-yl)ethoxy)-7H-pyrrolo[2,3-d]pyrimidine-5-carboxamide] | 78
15 | COCc1ccc(NC(=O)c2c(C#Cc3cncs3)n(C3(C)CC3)c3ncnc(N)c23)cc1 [Example 193, 4-amino-N-[4-(methoxymethyl)phenyl]-7-(1-methylcyclopropyl)-6-(thiazol-5-ylethynyl)-7H-pyrrolo[2,3-d]pyrimidine-5-carboxamide] | 51
16 | COCc1ccc(NC(=O)c2c(C#Cc3c(C)noc3C)n(C3(C)CC3)c3ncnc(N)c23)cc1 [Example 184, 4-amino-6-((3,5-dimethylisoxazol-4-yl)ethynyl)-N-(4-(methoxymethyl)phenyl)-7-(1-methylcyclopropyl)-7H-pyrrolo[2,3-d]pyrimidine-5-carboxamide] | 58
17 | COCc1ccc(NC(=O)c2c(/C=C/CO)n(C3(C)CC3)c3ncnc(N)c23)cc1 [Example 109, (E)-4-amino-6-(3-hydroxyprop-1-en-1-yl)-N-(4-(methoxymethyl)phenyl)-7-(1-methylcyclopropyl)-7H-pyrrolo[2,3-d]pyrimidine-5-carboxamide] | 68
18 | COCCN(C)CC#Cc1c(C(=O)Nc2ccc(COC)cc2)c2c(N)ncnc2n1C1(C)CC1 [Example 197, 4-amino-6-(3-((2-methoxyethyl)(methyl)amino)prob-1-yn-1-yl)-N-(4-(methoxymethyl)phenyl)-7-(1-methylcyclopropyl)-7H-pyrrolo[2,3-d]pyrimidine-5-carboxamide] | 52
19 | C=Cc1c(C(=O)Nc2ccc(COC)cc2)c2c(N)ncnc2n1C1(C)CC1 [Example 65, 4-amino-N-(4-(methoxymethyl)phenyl)-7-(1-methylcyclopropyl)-6-vinyl-7H-pyrrolo[2,3-d]pyrimidine-5-carboxamide] | 79
20 | COCc1ccc(NC(=O)c2c(C#CCC3(O)COC3)n(C3(C)CC3)c3ncnc(N)c23)cc1 [Example 125, 4-amino-6-(3-(3-hydroxyoxetan-3-yl)prop-1-yn-1-yl)-N-(4-(methoxymethyl)phenyl)-7-(1-methylcyclopropyl)-7H-pyrrolo[2,3-d]pyrimidine-5-carboxamide] | 74
21 | COCc1ccc(NC(=O)c2c(C3=CCOCC3)n(C3(C)CC3)c3ncnc(N)c23)cc1 [Example 203, 4-amino-6-(3,6-dihydro-2H-pyran-4-yl)-N-(4-(methoxymethyl)phenyl)-7-(1-methylcyclopropyl)-7H-pyrrolo[2,3-d]pyrimidine-5-carboxamide] | 68
22 | COCc1ccc(NC(=O)c2c(C(C)O)n(C3(C)CC3)c3ncnc(N)c23)cc1 (stereo not shown) [Example 204, 4-amino-6-(1-hydroxyethyl)-N-(4-(methoxymethyl)phenyl)-7-(1-methylcyclopropyl)-7H-pyrrolo[2,3-d]pyrimidine-5-carboxamide] | 83
23 | COCc1ccc(NC(=O)c2c(-c3ccc(CO)nc3)n(C3(C)CC3)c3ncnc(N)c23)cc1 [Example 179, 4-amino-6-(6-(hydroxymethyl)pyridin-3-yl)-N-(4-(methoxymethyl)phenyl)-7-(1-methylcyclopropyl)-7H-pyrrolo[2,3-d]pyrimidine-5-carboxamide] | 85
24 | COCc1ccc(NC(=O)c2c(-c3ccc(CO)cc3)n(C3(C)CC3)c3ncnc(N)c23)cc1 [Example 145, 4-amino-6-(4-(hydroxymethyl)phenyl)-N-(4-(methoxymethyl)phenyl)-7-(1-methylcyclopropyl)-7H-pyrrolo[2,3-d]pyrimidine-5-carboxamide] | 72
25 | CCn1cc(C#Cc2c(C(=O)Nc3ccc(COC)cc3)c3c(N)ncnc3n2C2(C)CC2)cn1 [Example 118, 4-amino-6-((1-ethyl-1H-pyrazol-4-yl)ethynyl)-N-(4-(methoxymethyl)phenyl)-7-(1-methylcyclopropyl)-7H-pyrrolo[2,3-d]pyrimidine-5-carboxamide] | 73
26 | COCc1ccc(NC(=O)c2c(C#Cc3ccccn3)n(C3(C)CC3)c3ncnc(N)c23)cc1 [Example 172, 4-amino-N-[4-(methoxymethyl)phenyl]-7-(1-methylcyclopropyl)-6-(pyridin-2-ylethynyl)-7H-pyrrolo[2,3-d]pyrimidine-5-carboxamide] | 61
27 | CCc1c(C(=O)Nc2ccc(COC)cc2)c2c(N)ncnc2n1C1(C)CC1 [Example 207, 4-amino-6-ethyl-N-(4-(methoxymethyl)phenyl)-7-(1-methylcyclopropyl)-7H-pyrrolo[2,3-d]pyrimidine-5-carboxamide] | 72
28 | COCc1ccc(NC(=O)c2c(C#Cc3ccc(N)nc3)n(C3(C)CC3)c3ncnc(N)c23)cc1 [Example 155, 4-amino-6-((6-aminopyridin-3-yl)ethynyl)-N-(4-(methoxymethyl)phenyl)-7-(1-methylcyclopropyl)-7H-pyrrolo[2,3-d]pyrimidine-5-carboxamide] | 64
29 | COCc1ccc(NC(=O)c2c(-c3cn[nH]c3)n(C3(C)CC3)c3ncnc(N)c23)cc1 [Example 167, 4-amino-N-(4-(methoxymethyl)phenyl)-7-(1-methylcyclopropyl)-6-(1H-pyrazol-4-yl)-7H-pyrrolo[2,3-d]pyrimidine-5-carboxamide] | 80

Same assay, conditions: mouse liver microsome, 1 μM, 37° C., 30 minutes

Row | SMILES | percentage of the remaining test compounds (remaining %) [%]
30 | Nc1ncnc2c1c(C(=O)Nc1ccc(Oc3ccccc3)cc1)cn2C1CCCC1 [Compound 2 of Comparative Examples, 4-amino-7-cyclopentyl-N-(4-phenoxyphenyl)-7H-pyrrolo[2,3-d]pyrimidine-5-carboxamide, reference compound] | 0

Molecular target: recombinant human RET protein (Homo sapiens (Human), UniProt P07949)
Test: Measurement of inhibitory activity against RET (in vitro)
Assay type: biochemical
Conditions: ATP 10 μM

Sequence of recombinant human RET protein (P07949 29-1114): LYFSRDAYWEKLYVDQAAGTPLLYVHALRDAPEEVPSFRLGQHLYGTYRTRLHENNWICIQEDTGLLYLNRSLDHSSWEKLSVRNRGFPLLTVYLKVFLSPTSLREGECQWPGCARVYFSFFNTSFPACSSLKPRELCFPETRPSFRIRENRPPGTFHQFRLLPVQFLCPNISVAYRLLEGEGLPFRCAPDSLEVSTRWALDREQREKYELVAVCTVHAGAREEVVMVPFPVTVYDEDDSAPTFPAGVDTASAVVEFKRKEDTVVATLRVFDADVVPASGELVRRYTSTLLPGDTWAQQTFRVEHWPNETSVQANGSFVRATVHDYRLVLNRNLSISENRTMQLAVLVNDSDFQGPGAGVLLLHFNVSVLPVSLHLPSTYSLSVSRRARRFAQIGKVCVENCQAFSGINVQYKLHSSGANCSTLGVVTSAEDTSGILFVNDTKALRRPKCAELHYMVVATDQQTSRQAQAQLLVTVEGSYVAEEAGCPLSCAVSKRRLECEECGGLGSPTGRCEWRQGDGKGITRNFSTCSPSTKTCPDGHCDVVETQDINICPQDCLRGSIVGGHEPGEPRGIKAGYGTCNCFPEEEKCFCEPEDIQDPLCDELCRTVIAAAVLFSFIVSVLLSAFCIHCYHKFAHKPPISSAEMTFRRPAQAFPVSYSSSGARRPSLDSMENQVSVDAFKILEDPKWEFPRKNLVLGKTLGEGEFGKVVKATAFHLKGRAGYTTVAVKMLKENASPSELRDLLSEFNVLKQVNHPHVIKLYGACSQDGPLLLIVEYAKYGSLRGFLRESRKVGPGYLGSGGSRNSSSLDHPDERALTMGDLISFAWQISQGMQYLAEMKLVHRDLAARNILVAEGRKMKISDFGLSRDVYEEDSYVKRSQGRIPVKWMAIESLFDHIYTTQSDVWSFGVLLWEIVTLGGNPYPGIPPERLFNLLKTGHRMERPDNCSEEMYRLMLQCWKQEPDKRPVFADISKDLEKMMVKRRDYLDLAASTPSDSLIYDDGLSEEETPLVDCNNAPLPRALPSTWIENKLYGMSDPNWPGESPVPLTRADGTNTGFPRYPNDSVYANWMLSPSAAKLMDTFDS

Row | SMILES | IC50 [µM]
31 | COCc1ccc(NC(=O)c2nn(-c3ccccc3)c3ncnc(N)c23)cc1 [Comound 5 of Comparative Examples, 4-amino-N-(4-(methoxymethyl)phenyl)-1-phenyl-1H-pyrazolo[3,4-d]pyrimidine-3-carboxamide] | > 5
